The text below walks through data of ChEMBL document CHEMBL1157393, “Selective inhibition of aromatase by a dihydroisocoumarin from Xyris pterygoblephara” (J Nat Prod, 2008).

Calls of active or inactive are those of the source. The calls are words filed in the database; no cut-off is given here. A value given as a limit tells only on which side of the number the result lay.

The target of test [1] is T1, Aromatase (Homo sapiens, UniProt P11511).
T1 sequence (P11511 whole entry): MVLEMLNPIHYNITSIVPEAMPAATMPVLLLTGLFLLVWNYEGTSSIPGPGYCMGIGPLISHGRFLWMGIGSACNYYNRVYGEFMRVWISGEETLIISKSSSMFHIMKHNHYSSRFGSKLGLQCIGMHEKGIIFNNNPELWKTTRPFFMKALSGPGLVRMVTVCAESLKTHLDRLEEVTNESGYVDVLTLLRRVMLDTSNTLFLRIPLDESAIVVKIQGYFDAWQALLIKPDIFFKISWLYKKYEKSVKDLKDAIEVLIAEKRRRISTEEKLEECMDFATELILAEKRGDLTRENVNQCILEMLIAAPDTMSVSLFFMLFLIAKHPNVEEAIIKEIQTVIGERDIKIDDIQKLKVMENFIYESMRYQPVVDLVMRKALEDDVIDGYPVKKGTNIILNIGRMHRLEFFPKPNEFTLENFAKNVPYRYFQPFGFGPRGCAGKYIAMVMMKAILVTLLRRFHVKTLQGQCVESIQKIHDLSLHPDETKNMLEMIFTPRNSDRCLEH
Nature of the test: Inhibition of aromatase.

Test [2] has as its target Cytochrome P450 3A4 (Homo sapiens, UniProt P08684). Nature of the test: Inhibition of CYP3A4. It counts as ADME.
Test [3] deals with HepG2. Description: Antiproliferative activity against human HepG2 cells assessed as cell growth upto 65 uM after 4 days by sulforhodamine B assay. Type of test: functional, cell-based. In general terms: Sulforhodamine B stains cellular protein and so reports cell mass.
In test [4] the target is T2, Cytochrome P450 2C8 (Homo sapiens, UniProt P10632).
T2 sequence (P10632 whole entry): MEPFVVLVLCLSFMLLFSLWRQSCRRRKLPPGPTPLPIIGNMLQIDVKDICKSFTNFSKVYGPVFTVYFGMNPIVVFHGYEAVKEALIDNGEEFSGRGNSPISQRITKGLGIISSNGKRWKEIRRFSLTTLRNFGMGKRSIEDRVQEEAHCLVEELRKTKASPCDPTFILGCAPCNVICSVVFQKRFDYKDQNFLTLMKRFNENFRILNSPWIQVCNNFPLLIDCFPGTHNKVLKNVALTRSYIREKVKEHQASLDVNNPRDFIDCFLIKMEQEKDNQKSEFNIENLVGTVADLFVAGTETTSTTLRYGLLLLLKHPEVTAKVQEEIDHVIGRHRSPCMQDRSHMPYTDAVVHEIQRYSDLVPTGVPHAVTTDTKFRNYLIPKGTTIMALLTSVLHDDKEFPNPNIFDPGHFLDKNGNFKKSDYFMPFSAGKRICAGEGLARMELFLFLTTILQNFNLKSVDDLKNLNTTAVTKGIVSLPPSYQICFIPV
Description: Inhibition of CYP2C8. It counts as ADME.

The subject of test [5] is Lu1. Nature of the test: Antiproliferative activity against human LU1 cells assessed as cell growth upto 65 uM after 4 days by sulforhodamine B assay. It counts as functional, cell-based.
The target in test [6] is T3, Cytochrome P450 1A1 (Homo sapiens, UniProt P04798).
T3 sequence (P04798 whole entry): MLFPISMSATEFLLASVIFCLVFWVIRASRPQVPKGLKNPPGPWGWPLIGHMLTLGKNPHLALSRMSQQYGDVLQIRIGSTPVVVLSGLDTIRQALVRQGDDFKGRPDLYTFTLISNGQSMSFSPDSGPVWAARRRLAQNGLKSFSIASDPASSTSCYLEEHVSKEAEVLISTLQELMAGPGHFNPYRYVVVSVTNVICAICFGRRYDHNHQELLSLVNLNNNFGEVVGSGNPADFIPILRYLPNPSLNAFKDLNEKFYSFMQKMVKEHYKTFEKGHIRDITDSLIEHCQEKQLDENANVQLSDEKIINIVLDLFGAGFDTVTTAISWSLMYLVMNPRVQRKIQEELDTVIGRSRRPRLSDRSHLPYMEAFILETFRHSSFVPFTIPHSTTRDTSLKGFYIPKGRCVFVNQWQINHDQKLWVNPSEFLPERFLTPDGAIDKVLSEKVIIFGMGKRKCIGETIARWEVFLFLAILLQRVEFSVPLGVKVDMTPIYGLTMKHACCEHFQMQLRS
Description: Inhibition of CYP1A1. It counts as ADME.

Test [7] deals with MCF7. Description: Antiproliferative activity against human MCF7 cells assessed as cell growth after 4 days by sulforhodamine B assay. Type of test: functional, cell-based. The note with it: MCF7, 96 h.
In test [8] the test system is LNCaP. Description: Antiproliferative activity against human LNCaP 1740 cells assessed as cell growth after 4 days by sulforhodamine B assay. Type of test: functional, cell-based. Conditions: 96 h.

Sequence of Cytochrome P450 3A4 (P08684 whole entry): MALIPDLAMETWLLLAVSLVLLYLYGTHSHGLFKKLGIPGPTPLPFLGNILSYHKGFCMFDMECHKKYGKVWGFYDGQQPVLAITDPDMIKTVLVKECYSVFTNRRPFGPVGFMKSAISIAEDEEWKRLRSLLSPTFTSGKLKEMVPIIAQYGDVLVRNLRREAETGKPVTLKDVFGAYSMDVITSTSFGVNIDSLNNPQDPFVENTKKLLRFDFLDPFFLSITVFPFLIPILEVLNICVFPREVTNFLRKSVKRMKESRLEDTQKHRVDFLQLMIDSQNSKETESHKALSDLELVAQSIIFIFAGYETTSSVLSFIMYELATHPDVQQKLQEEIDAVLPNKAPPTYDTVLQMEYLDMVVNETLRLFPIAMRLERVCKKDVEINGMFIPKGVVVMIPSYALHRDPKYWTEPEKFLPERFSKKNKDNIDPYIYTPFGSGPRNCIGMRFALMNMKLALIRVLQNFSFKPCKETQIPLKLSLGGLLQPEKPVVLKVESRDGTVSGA

`C[C@@H]1O[C@@H](O[C@H]2[C@H](Oc3cc(O)c4c(c3)O[C@H](c3ccc(O)cc3)CC4=O)O[C@H](CO)[C@@H](O)[C@@H]2O)[C@H](O)[C@H](O)[C@H]1O` [NARINGIN]: the IC50 in test [1] is 5 µM.

With `CCCCC[C@H]1OC(=O)c2ccc(OC)cc2[C@H]1OC(C)=O`, the IC50 in test [2] was more than 65 µM; in test [4] it was more than 65 µM; in test [6], 38 µM; in test [7] it was 66.9 µM; in test [8], 57.5 µM. Further, the outcome in test [3] and in test [5] was inactive.

By IC50 is commonly meant the point on the concentration scale where inhibition reaches its midpoint.
